Structures are written as SMILES.

The text below walks through data of patent US7528159B2, “5-aryl pyridines as 11-beta inhibitors for the treatment of diabetes” (Hoffmann-La Roche Inc., priority 2004, dated 2009).

The experiment has as its target T1, human 11beta-HSD1 (Homo sapiens, UniProt P28845).
T1 construct: made in house; host or cells: HEK293 cells (ATCC CRL-1573), transient transfection with lipofectamine; microsomal fraction used
The experiment in a line: Microsome assay (cortisone to cortisol conversion, ELISA). The class given is biochemical. The following applies: microsomes from HEK293 cells transiently expressing human 11beta-HSD1; 60 min, 37° C.; read-out: h 11-beta-HSD 1 IC50. As for the experimental part:
The cDNA encoding the human 11beta-HSD1 protein was cloned into the expression vector pcDNA3 (Stratagene). This construct (for details see Alex Odermatt et al.; J Biol. Chem., 1999, Vol. 274, Issue 40, 28762-28770) was used to transiently express the protein in HEK293 cells (ATCC number: CRL-1573, described in Graham, F. L., Smiley, J., Russell, W. C., Nairn, R.; (1977)) using lipofectamine. 48 h after transfection cells were washed twice with ice-cold PBS (Phosphate buffered Saline). To 1 volume of cell suspension in PBS 2 volumes of ice-cold lysis buffer (50 mM Tris; pH7.5; 1 mM EDTA; 100 mM NaCl) were added. The cells were lysed by Potter-homogenization (20 strokes). The resulting homogenate was sonicated with a tip sonicator (10% output; 2×30 sec.) and cleared by a low speed centrifugation (10 min×9000 g; 4° C.). The microsomal fraction was collected by a high speed centrifugation (60 min×110'000 g). […]
Microsomes isolated from HEK293 cells transiently expressing human 11beta-HSD1 (for details see above) were incubated in assay buffer (100 mM NaCl; 1 mM EDTA; 1 mM EGTA; 1 mM MgCl; 250 mM Sucrose; 20 mM Tris pH 7.4; Cortisone 50-200 nM and NADPH 1 mM) together with different concentrations of test substances. […] The amount of Cortisol produced in this assay was determined using a commercially available, ELISA-based Cortisol-detection kit (Distributed by Assay Design, Inc.). […]
Background: In an ELISA, binding on a coated surface is turned into a signal by an enzyme label.

T1 sequence (P28845 whole entry): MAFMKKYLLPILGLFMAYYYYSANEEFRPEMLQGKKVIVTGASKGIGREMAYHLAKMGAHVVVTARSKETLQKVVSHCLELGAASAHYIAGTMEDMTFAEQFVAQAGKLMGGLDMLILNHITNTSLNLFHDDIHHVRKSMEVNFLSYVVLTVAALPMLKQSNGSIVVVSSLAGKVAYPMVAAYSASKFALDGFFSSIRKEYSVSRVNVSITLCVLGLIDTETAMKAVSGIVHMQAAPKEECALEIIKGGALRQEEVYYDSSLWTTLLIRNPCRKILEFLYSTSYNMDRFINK

In general, IC50 refers to the concentration that inhibits the measured activity by half. With `Cc1c(Cl)cccc1S(=O)(=O)Nc1ccc(-c2ccccc2Cl)cn1` [Example 2, 3-chloro-N-[5-(2-chloro-phenyl)-pyridin-2-yl]-2-methyl-benzenesulfonamide], the IC50 stood at 3 nM.

With `Cc1cc(F)ccc1-c1ccc(NS(=O)(=O)c2cccc(Cl)c2)nc1C` [Example 110, 3-Chloro-N-[5-(4-fluoro-2-methyl-phenyl)-6-methyl-pyridin-2-yl]-benzenesulfonamide], the IC50 came to 12 nM.
